In patent publication US12557812B2, “Method and composition for water treatment” (BROMINE COMPOUNDS LTD., priority 2019, dated 2026):
“Also recorded” adds a separate entry of the source. Like-named read-outs stand apart in the source and are kept apart here.

Experiments:
[1] = tested on: mix of planktonic bacteria (E. Coli ATCC 11229, S. aureus ATCC 6538, Enterobacter aerogenes ATCC 130489, P. aeruginosa ATCC 13388); assay: Quantitative suspension test (modified EN 1040) on planktonic bacteria, sequential CDA then biocide; type: cell-based; details: 2.5 ppm BCDMH 3 h, 310 nM CDA 1 h before; TOC=30 ppm, 30° C.
Description: 310 nM CDA and bromine-containing biocide were introduced into a mix of planktonic bacteria in a medium containing different levels of organic loading (TOC 10-3000 ppm). High organic loading tends to reduce the efficacy of antimicrobial agents in industrial applications and, therefore, the test was aimed to mimic these conditions. The test was performed in accordance with the modified European standard EN 1040: 2005: “Chemical disinfectants and antiseptics—Quantitative suspension test for the evaluation of basic bactericidal activity of chemical disinfectants and antiseptics—Tests method and requirements (phase 1)”. 19 ml of phosphate buffer solution (pH=7) including tryptone in order to obtain a solution of TOC=30 ppm, and 1 ml of the tested bacteria suspension (consisted of E. Coli (ATCC 11229), S. aureus (ATCC 6538), Enterobacter aerogenes (ATCC 130489) and P. aeruginosa (ATCC 13388)), at a concentration of 1.5×10^8-5×10^8 CFU/ml, were placed into a container of suitable capacity. A stopwatch was started immediately and the container was placed in a water bath controlled at 30° C.
The activity was determined with 2.5 ppm BCDMH alone for a contact time of 3 hours. […] Countable plates were counted and the number of colony-forming units was determined, for each plate.

[2] = tested on: Pseudomonas aeruginosa biofilm; assay: Sequential application of CDA then biocide on 3-day-old biofilm grown in CDC biofilm reactor (single tube method); type: cell-based; details: for effect on biofilm of biocides applied alone, compared with each other: Example 8, 5 ppm, 1 h (FIG. 17)
[3] = tested on: P. aeruginosa strain PA14 biofilm; assay: Simultaneous application of CDA and biocide on 3-day biofilm in 24-well plates; type: cell-based, Pseudomonas aeruginosa; details: for Log reduction vs. control: biocide alone / Enhancement / Log reduction vs. control: combination of the 310 nm CDA and biocide: biocide 10 ppm; for Enhancement: simultaneous 310 nm CDA; for Log reduction vs. control: combination of the 310 nm CDA and biocide: simultaneous application
Description: The effect of bromine-containing biocide in combination with CDA on pre-grown biofilms was studied. The experiment was carried out utilizing (A) the P. aeruginosa strain PA14 and (B) mixed bacterial species derived from environmental and industrial water.
Bacteria were cultured in EPRI medium supplemented with Hutners mineral solution and glucose (0.2%). Microorganisms were incubated at room temperature (22° C.), under aerobic conditions with shaking. The biofilm culture system used included polystyrene 24-well plates that were treated with protein to enhance attachment and growth of biofilm bacteria according to the method described in Davies D G, Marques C N, 2009, J Bacteriol 191:1393-1403.
Following inoculation with 1 mL bacterial culture, spent medium was removed and replaced with sterile medium every 24 hours for 3 days, and a final medium exchange was performed 3 hours prior to treatment. Additionally, the medium was exchanged prior to treatment in order to remove planktonic bacteria. Treatments consisted of 100 μL of 310 nM CDA and bromine-containing biocide, or bromine-containing biocide alone at concentrations used in commercial water treatment, water was used as a carrier, for a contact time determined by activity of each biocide and ranging from 1 hour to 24 hours, as detailed below for each of the tested biocides.
Following the treatment, the medium from each well was removed by pipet and 1 mL of DE neutralization broth was added in order to stop the treatment. Bacteria from each well were then removed by scraping the biofilm formed in the well with a sterile cell-scraper, and 1.0 mL of culture was transferred to chilled (4° C.) 9.0 mL DE neutralizing broth and homogenized for 15 seconds at 40,000 rpm on ice. Further dilutions were performed prior to enumeration (further neutralizing biocide activity). Recovery of bacteria were tested at different dilutions of biocide in water, in LB medium with thioglycolate and in DE neutralizing broth to ensure the active agent was properly neutralized. Viable bacteria were enumerated via the drop plate method. Each biocide was evaluated using 24-well plates with 8 wells each for the control cultures (Ctl) inoculated with P. aeruginosa but not treated, a CDA minus test (−CDA) treated with bromine-containing biocide only, and a CDA plus test treated with bromine-containing biocide and CDA (+CDA).

[4] = tested on: biofilm formed by mixed bacteria (Staphylococcus aureus 6538, Bacillus mycoides 6462 and Pseudomonas aeruginosa 700888); assay: Sequential application of CDA then biocide on mixed-bacteria biofilm grown in CDC biofilm reactor; type: cell-based
[5] = Storage stability of biocide/CDA liquid concentrates (HPLC); type: physicochemical
Description: 22 mg of cis-2-decenoic acid (CiVentiChem, 96.72% purity) were charged into 50 ml flask, equipped with a stirrer 3.99 gr of C-103 (ICL, batch 640160147) were added, followed by 9.97 gr of PEG200 (Merck 8.07483.5000 Lot 56904983 451), 5.95 gr of DI water and 22 mg of BHT (Aldrich B1378-100G, BCBH9491V). The obtained solution was stirred till complete clarification; sonication at +30° C. is recommended if some particles are observed. Clear colorless solution of a total […] and 20:50:30:0.1:0.1 weight ratio of C103-PEG200-H2O-CDA-BHT was obtained.
The solution was tested to determine the stability of the biocide and CDA and under storage at 25° C. over a two-month period.
47.6 mg or cis-2-decenoic acid (CiVentiChem, 96.72% purity) were charged into 50 ml flask, equipped with a stirrer. 9.01 gr of Bronopol (ICL, batch 17101607) were added, followed by 18.03 gr of propylene glycol (Biolab 16200201 Lot 1007861), 3.0 gr of DI water and 31.2 mg of BHT (Aldrich B1378-100G, BCBH9491V). After stirring for several minutes, undissolved traces of BHT were filtered through filtering paper for BHT particle removal. Clear colorless solution of a total 30 gr and 30:60:10:0.158:0.1 weight ratio of Bronopol-PG-H2O-CDA-BHT was obtained.

[6] = tested on: P. aeruginosa biofilm; assay: Simultaneous application of CDA salt form and biocide on 3-day biofilm, CDC biofilm reactor, pH 8-9; type: cell-based, Pseudomonas aeruginosa; details: 310 nM CDA, 1 h
[7] = Stepwise acidification of CDA sodium/lithium salt (pKa); type: physicochemical

## CC1(C)C(=O)N(Cl)C(=O)N1Br [BCDMH, 1-bromo-3-chloro-5,5-dimethylhydantoin]
[1]
  enhancement by CDA and biocide in sequence compared with biocide without CDA: 2 log units
[2]; 10 ppm BCDMH, 31 nM commercial CDA (FIG. 13)
  enhancement by combined treatment relative to biocide alone: 4.5 log units
[2]; 10 ppm BCDMH, 310 nM commercial CDA (FIG. 13)
  enhancement by combined treatment relative to biocide alone: 4.5 log units
[2]; 10 ppm BCDMH, 3100 nM commercial CDA (FIG. 13)
  enhancement by combined treatment relative to biocide alone: 5.5 log units
[2]; Example 3, sequential, FIG. 14
  effect of 5.0 ppm biocide with 310 nM CDA relative to 10 ppm biocide without CDA: comparable
[2]; Example 8, 5 ppm biocide/310 nM CDA, sequential (FIG. 17)
  reduction by biocide/CDA combination versus the solely applied biocide: 4.5 log units
[2]
  effect on biofilm of biocides applied alone, compared with each other: comparable effect
[2]; biocide 10 ppm, 1 h contact time, 3-day-old biofilm
  Log reduction vs. control: biocide alone: ~3.5 log units
[2]; biocide 10 ppm, 310 nM CDA combination vs biocide alone
  Enhancement: ~2.5 log units
[2]; biocide 10 ppm, 1 h CDA 310 nM then 1 h biocide
  Log reduction vs. control: combination of the 310 nM CDA and biocide: ~6 log units
[2]; text of Example 2, biocide 10 ppm, 310 nM commercial CDA (97% by GC)
  enhancement by combined treatment relative to biocide alone: ~2 log units
[2]; text of Example 2, biocide 10 ppm, 310 nM crude CDA (90% by GC)
  enhancement by combined treatment relative to biocide alone: ~2 log units
[2]; text of Example 2, biocide 10 ppm, 1 h
  biofilm reduction by biocide alone: ~3 log units
[3]; 10 ppm BCDMH, 310 nM CDA, one hour (FIG. 4)
  log reduction of biocide and CDA compared with biocide alone: 2
[3]; 2 hours contact time
  Log reduction vs. control: biocide alone: ~4 log units
  Enhancement: ~2 log units
  Log reduction vs. control: combination of the 310 nm CDA and biocide: ~6 log units
[4]; biocide 5 ppm or 10 ppm, mixed bacteria biofilm
  biofilm reduction by biocide alone: reduces the biofilm
[4]; biocide 5 ppm, 310 nM commercial CDA, mixed bacteria biofilm (FIG. 12A)
  enhancement by combined treatment relative to biocide alone: ~2.5 log units
[4]; biocide 10 ppm, 310 nM commercial CDA, mixed bacteria biofilm (FIG. 12B)
  enhancement by combined treatment relative to biocide alone: ~5.5 log units
[4]; biocide 10 ppm, 1 h, biofilm formed by mixed bacteria
  Log reduction vs. control: biocide alone: ~2 log units
[4]; biocide 10 ppm, 310 nM CDA combination vs biocide alone, mixed bacteria biofilm
  Enhancement: ~5.5 log units
[4]; biocide 10 ppm, 1 h CDA 310 nM then 1 h biocide, mixed bacteria biofilm
  Log reduction vs. control: combination of the 310 nM CDA and biocide: ~7.5 log units

## O=[N+]([O-])C(Br)(CO)CO [Bronopol, 2-bromo-2-nitro-1,3-propanediol]
[3]; 10 ppm bronopol, 310 nM CDA, two hours of treatment (FIG. 2A)
  reduction of number of bacteria by addition of CDA to the biocide treatment: more than an order of magnitude
[3]; 24 hours contact time
  Log reduction vs. control: biocide alone: ~6 log units
  Enhancement: ~3 log units
  Log reduction vs. control: combination of the 310 nm CDA and biocide: effective in eradicating P. aeruginosa biofilm; also recorded: biofilm eradication
[3]; 24 hours contact time, listed as bronopol
  Log reduction vs. control: biocide alone: very effective in reducing biofilm
[5]
  degradation under storage (HPLC): Neither bronopol nor CDA underwent degradation

## CCCCCCC/C=C\C(=O)O [CDA, cis-2-decenoic acid]
[6]
  effect of CDA alone on biofilm compared to the control: no useful effect
[2]
  effect of CDA alone on biofilm compared to the control: no useful effect
[2]; 310 nM CDA, commercial (97%) or crude (90%), 1 h
  effect of CDA alone on biofilm compared to the control: no useful effect
[2]; CDA on its own, broad concentration range, even >3000 nM
  biocidal action of CDA alone (reduction of bacterial counts): failed to demonstrate biocidal action
[7]
  pKa: 6.5 to 7.5
[5]; Example 6 concentrate C103-PEG200-H2O-CDA-BHT 20:50:30:0.1:0.1, 25° C., two months
  degradation under storage (HPLC): Neither DBNPA nor CDA underwent degradation
[5]; Example 7 concentrate Bronopol-PG-H2O-CDA-BHT 30:60:10:0.158:0.1, 25° C., two months
  degradation under storage (HPLC): Neither bronopol nor CDA underwent degradation
[4]; 310 nM commercial CDA, mixed bacteria biofilm
  effect of CDA alone on biofilm compared to the control: no useful effect

## OCl [sodium hypochlorite, Sodium hypochlorite, reference compound]
[2]
  reduction by biocide/CDA combination versus the solely applied biocide: 2 log units
  effect on biofilm of biocides applied alone, compared with each other: comparable effect
